From patent US20240000741A1, “ALL-TRANS RETINOIC ACID ENHANCES RADIOTHERAPY AND OVERCOMES IMMUNE SUPPRESSION FOR CANCER THERAPY” (The University of Chicago, priority 2022, published 2024)

Columns and labels:
[1] = system: bone marrow-derived DCs (BMDCs); assay: iNOS induction in bone marrow-derived dendritic cells in vitro; assay type: cell-based, mouse; conditions: cultured in the presence of RA (200 μM)
Experimental: Femurs and tibias from 8- to 10-week-old mice were harvested. BMDCs were derived as described (40). The cultured BMDC were collected on day 6 for further experiments. For Inf-MAC induction in vitro, bone marrow cells were cocultured with the presence of 200 μM RA. On day 6, indicated amount of IFN-γ was added directly to the culture. Cells were stained for iNOS and TNF-α after 24-36 hours and analyzed using flow cytometry.

[2] = system: MC38 cell antigen-specific CD8+ T cells; assay: ELISPOT assay for IFN-γ-secreting CD8+ T cells; assay type: in vivo, mouse
Experimental: MC38 cells were irradiated (40 Gy) and cultured overnight. CD8^+ T cells were isolated with EasySep mouse CD8+ positive selection kit (18953, STEMCELL Technologies, Vancouver, Canada) from draining lymph nodes of tumor-bearing mice on day 8 after treatment. 2×10^5 isolated CD8^+ T cells and 2×10^4 irradiated MC38 cells were plated onto 96-well PVDF-backed microplates coated with monoclonal antibody specific for mouse IFN-γ for 72 hours. Spots were developed by following the manufacturer's protocol (BD Biosciences, Franklin Lakes, New Jersey, United States of America).

[3] = system: non-irradiated MC38 tumors; assay: MC38 two-tumor model, growth of non-irradiated tumors (abscopal effect); assay type: in vivo, mouse; conditions: RA and IR treatment of primary tumor compared to any single treatment
Experimental: 1×10^6 MC38, B16/F1, Renca or CT26 cells were subcutaneously implanted into flanks of mice. Tumors were irradiated using a Phillips IR250 orthovoltage X-ray generator (Phillips, Amsterdam, the Netherlands) operating at 250 kV 15 mA. Subcutaneous local tumors were irradiated by shielding bodies with a cylindrical lead cover with only flank tumors exposed for radiation. ATRA (400 μg/mice/day) was administered by oral gavage for 10 days. For the two-tumor model, 1×10^6 and 0.7×10^6 MC38 cells were subcutaneously implanted into the right and left flank of mice respectively. For the tumor re-challenge assay, both the cured mice and the naive mice were re-challenged with 5×10^6 MC38 or 1×10^6 LLC cells respectively. Tumors were measured along two diameters (length and width) and depth twice weekly and volumes were calculated as length×width×depth/2. For CD8 and CD4 T cell depletion experiments, 200 μg antibodies were injected i.p. on day 0, 2, 5 and 8 after radiation. Anti-CD11b antibody was injected i.p. every two days starting 1 day before radiation. Anti-PD-L1 antibody was administered i.p. on day 0, 3, and 7 after radiation at 200 μg/mouse. Anti-IFN-γ was administered i.p. at 500 μg/mouse every 7 days. Anti-NK1.1 antibody was administered via i.p. at 25 μg/mouse every 3 days for 3 doses. Anti-GM-CSF antibody was given by i.p. injection at 250 μg/mouse every 2 days. […]

[4] = system: chemokines and cytokines in tumors; assay: Multiplex cytokine/chemokine assay of tumor homogenates; assay type: in vivo, mouse
Experimental: Whole tumors were excised at indicated time point post treatment. Tumors were weighed and homogenized in PBS with the presence of protease inhibitor cocktails at a ratio of 1 ml per gram of tissue. 25 μl of supernatants were subjected to a bead-based cytokine and chemokine assay (a mouse inflammation panel and chemokine panel sold under the tradename LEGENDPLEX™ (BioLegend, San Diego, California, United States of America). The assays were analyzed using a LSRII flow cytometer and software sold under the tradename LEGENDPLEX™ (both from BioLegend, San Diego, California, United States of America). IFN-γ was measured using IFN-γ flex CBA set (BD Biosciences, Franklin Lakes, New Jersey, United States of America). TNF-α concentration was measured using ELISA kit from R&D Systems (MTA00B; Minneapolis, Minnesota, United States of America). For nitrite assay, equal weight of tumors were cut into pieces and cultured in DMEM medium for 2 hours. The production of NO in the supernatants was measured indirectly by measuring the concentration of nitrite by using the Griess reagent nitrite measurement kit (Cell Signaling Technology, Danvers, Massachusetts, United States of America; #13547).
To determine whether RA has direct cytotoxic and/or radiosensitizing effects on tumor cells, MC38 cells were cultured with RA (0 nM to 2000 nM) after IR (0 Gy to 15 Gy) for three days. […] Since both IR and RA regulate immune responses, studies were conducted to examine how the combination treatment changes the tumor immune environment. Using a multiplex assay, the level of chemokines and cytokines in tumors three days after treatment was determined.

CT26 tumor = assay: ATRA-sensitized fractionated radiotherapy in CT26 tumor bearing BALB/c mice; assay type: in vivo, mouse; conditions: 6 fractions
Experimental: 2×10^6 CT26 cells were subcutaneously injected into the right flanks of BALB/c mice. When the tumors reached 100-120 mm^3 in volume, ATRA in corn oil (400 μg/each) was daily administrated via oral gavage. After administration, mice were anaesthetized with 2% (v/v) isoflurane and the tumors were irradiated daily with X-ray at a dose of 1 Gy/fraction (225 kVp, 13 mA, 0.3 mm-Cu filter) for a total of 6 fractions on six consecutive days. Oil (equal volume/each) was daily administrated with or without irradiation as a control. The tumor size was measured with a caliper every day and the tumor volume calculated as 0.5×length×width 2. All the mice were sacrificed when the tumors reached about 2000 mm^3.

[5] = system: MC38 syngeneic subcutaneous flank tumor; assay: ATRA-sensitized fractionated radiotherapy in MC38 tumor bearing C57BL/6 mice; assay type: in vivo, mouse; conditions: 3 fractions
Experimental: A MC38 syngeneic subcutaneous flank tumor-bearing mouse model was used for the evaluation of in vivo efficacy of ATRA-sensitized radiotherapy. 2×10^6 MC38 cells were injected into the right flank subcutaneous tissues of C57BL/6 background mice. […] After administration, mice were anaesthetized with 2% (v/v) isoflurane and the tumors were irradiated daily with X-ray at a dose of 2 Gy/fraction (225 kVp, 13 mA, 0.3 mm-Cu filter) for a total of 3 fractions. Oil (equal volume/each) was administrated daily with or without irradiation as controls. […] All the mice were sacrificed when the tumors reached about 2,000 mm^3.

[6] = IR+RA compared to other treatments
[7] = ATRA 400 μg/each oral gavage daily plus X-ray 1 Gy/fraction
[8] = ATRA 400 μg/each oral gavage daily plus X-ray 2 Gy/fraction

## CC1=C(/C=C/C(C)=C/C=C/C(C)=C/C(=O)O)C(C)(C)CCC1 [RA, all-trans retinoic acid]
[1]
  iNOS production in BMDCs: increased significantly
[2]; IR+RA compared to control or single treatments
  tumor antigen-specific CD8+ T cell priming in draining lymph nodes (IFN-γ ELISPOT): significantly enhanced
[2]; primary tumor received IR+RA combination treatment
  priming of CD8+ T cells from DLN of non-irradiated tumors (IFN-γ production): augmented
[3]
  growth of non-irradiated tumors: slower growth rate
[4]; [6]
  IFN-β level in tumors: significantly elevated
  IFN-γ level in tumors: significantly elevated
  IL-1 level in tumors: significantly elevated
  IL-6 level in tumors: significantly elevated
[4]; IR+RA, three days after treatment
  increase of GM-CSF in whole tumor homogenates: more than 5 fold
[4]; radiation and RA treatment
  CXCL9 level in tumors: elevated
  CXCL10 level in tumors: elevated
CT26 tumor; [7]
  CT26 tumor growth: regressed tumor growth
  mice totally free of tumors: 2 out of 5
CT26 tumor; ATRA plus X-ray 1 Gy/fraction
  body weight: No weight loss
[5]; [8]
  MC38 tumor growth: greatly regressed the growth of tumors
  mice totally free of tumors: 5 out of 5
[5]; ATRA and X-ray 2 Gy/fraction
  body weight: did not lose body weight
[5]; ATRA plus X-ray 2 Gy/fraction
  time without tumor regrowth: ≥ 30 days
